Laboratory results published in patent publication US20200187502A1, “MICROBIOCIDAL OXADIAZOLE DERIVATIVES” (SYNGENTA PARTICIPATIONS AG, priority 2017, published 2020).

Experiments:
Phakopsora pachyrhizi = test: Fungicidal activity, soybean leaf disc preventative (Asian soybean rust); format: in vivo; details: foliar, 200 ppm in the applied formulation, soybean leaf disks, compared to untreated control, 12 to 14 days after application, read-out: disease control
Description: Leaf disks or leaf segments of various plant species are cut from plants grown in a greenhouse. The cut leaf disks or segments are placed in multiwell plates (24-well format) onto water agar. The leaf disks are sprayed with a test solution before (preventative) or after (curative) inoculation. Compounds to be tested are prepared as DMSO solutions (max. 10 mg/ml) which are diluted to the appropriate concentration with 0.025% Tween20 just before spraying. The inoculated leaf disks or segments are incubated under defined conditions (temperature, relative humidity, light, etc.) according to the respective test system. A single evaluation of disease level is carried out 3 to 14 days after inoculation, depending on the pathosystem. Percent disease control relative to the untreated check leaf disks or segments is then calculated.
Soybean leaf disks are placed on water agar in multiwell plates (24-well format) and sprayed with the formulated test compound diluted in water. One day after application leaf discs are inoculated by spraying a spore suspension on the lower leaf surface. After an incubation period in a climate cabinet of 24-36 hours in darkness at 20° C. and 75% rh leaf disc are kept at 20° C. with 12 h light/day and 75% rh. The activity of a compound is assessed as percent disease control compared to untreated when an appropriate level of disease damage appears in untreated check leaf disks (12 to 14 days after application).
The following compounds at 200 ppm in the applied formulation give at least 80% disease control in this test when compared to untreated control leaf disks under the same conditions, which show extensive disease development.

[1] = test system: Puccinia recondita f. Sp. Tritici; test: Fungicidal activity, wheat leaf disc curative (brown rust); format: in vivo; details: foliar, 200 ppm in the applied formulation, wheat leaf segments cv. Kanzler, curative (applied 1 day after inoculation), compared to untreated control, 6 to 8 days after application, read-out: disease control
How it was run: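 Spray application came one day after spore inoculation of Kanzler wheat leaf segments kept on agar. Conditions: 19° C, 75% relative humidity, dark before treatment and 12 h light/12 h dark after. Efficacy = % disease control compared with untreated, 6–8 days post-application.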

[2] = test system: Glomerella lacenarium (Colletotrichum lacenarium); test: Fungicidal activity, liquid culture, cucumber preventative (anthracnose); format: cell-based; details: 20 ppm in the applied formulation, liquid culture in PDB, inhibition of growth measured photometrically 3 to 4 days after application, compared to untreated control, read-out: disease control
How it was run: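 In liquid culture, cryo-stored conidia in potato dextrose broth were exposed to compound delivered from DMSO solution. Growth inhibition was measured photometrically after 3 to 4 days at 24° C.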

[3] = test system: Puccinia recondita f. Sp. Tritici; test: Fungicidal activity, wheat leaf disc preventative (brown rust); format: in vivo; details: foliar, 200 ppm in the applied formulation, wheat leaf segments cv. Kanzler, compared to untreated control, 7 to 9 days after application, read-out: disease control
How it was run: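 Wheat cv. Kanzler leaf segments on agar were sprayed with formulated compound in water, then inoculated with spores 1 day later. Incubated at 19° C, 75% rh, 12 h light/12 h dark; percent disease control versus untreated scored 7 to 9 days after application.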

CON(Cc1ccc(-c2noc(C(F)(F)F)n2)s1)C(=O)CC(F)(F)F [Compound 1.18, 3,3,3-trifluoro-N-methoxy-N-[[5-[5-(trifluoromethyl)-1,2,4-oxadiazol-3-yl]-2-thienyl]methyl]propanamide]
≥ 80%: pest or weed control at 200 ppm (Phakopsora pachyrhizi) | pest or weed control at 200 ppm [1] | inhibition of growth at 20 ppm [2] | pest or weed control at 200 ppm [3]

CCC(C)C(=O)N(Cc1ccc(-c2noc(C(F)(F)F)n2)s1)OC (stereo not shown) [Compound 1.19, N-methoxy-2-methyl-N-[[5-[5-(trifluoromethyl)-1,2,4-oxadiazol-3-yl]-2-thienyl]methyl]butanamide]
≥ 80%: pest or weed control at 200 ppm (Phakopsora pachyrhizi) | pest or weed control at 200 ppm [1] | inhibition of growth at 20 ppm [2] | pest or weed control at 200 ppm [3]

CCCC(=O)N(Cc1ccc(-c2noc(C(F)(F)F)n2)s1)OC [Compound 1.21, N-methoxy-N-[[5-[5-(trifluoromethyl)-1,2,4-oxadiazol-3-yl]-2-thienyl]methyl]butanamide]
≥ 80%: pest or weed control at 200 ppm (Phakopsora pachyrhizi) | pest or weed control at 200 ppm [1] | inhibition of growth at 20 ppm [2] | pest or weed control at 200 ppm [3]

CON(Cc1ccc(-c2noc(C(F)(F)F)n2)s1)C(=O)CC1CC1 [Compound 1.22, 2-cyclopropyl-N-methoxy-N-[[5-[5-(trifluoromethyl)-1,2,4-oxadiazol-3-yl]-2-thienyl]methyl]acetamide]
≥ 80%: pest or weed control at 200 ppm (Phakopsora pachyrhizi) | pest or weed control at 200 ppm [1] | inhibition of growth at 20 ppm [2] | pest or weed control at 200 ppm [3]

COCCCC(=O)N(Cc1ccc(-c2noc(C(F)(F)F)n2)s1)OC [Compound 1.23, N,4-dimethoxy-N-[[5-[5-(trifluoromethyl)-1,2,4-oxadiazol-3-yl]-2-thienyl]methyl]butanamide]
≥ 80%: pest or weed control at 200 ppm (Phakopsora pachyrhizi) | pest or weed control at 200 ppm [1] | inhibition of growth at 20 ppm [2] | pest or weed control at 200 ppm [3]

CON(Cc1ccc(-c2noc(C(F)(F)F)n2)s1)C(=O)C(N)=O [Compound 1.24, N′-methoxy-N′-[[5-[5-(trifluoromethyl)-1,2,4-oxadiazol-3-yl]-2-thienyl]methyl]oxamide]
≥ 80%: pest or weed control at 200 ppm (Phakopsora pachyrhizi) | pest or weed control at 200 ppm [1] | inhibition of growth at 20 ppm [2] | pest or weed control at 200 ppm [3]

CON(Cc1ccc(-c2noc(C(F)(F)F)n2)s1)C(C)=O [Compound 1.25, N-methoxy-N-[[5-[5-(trifluoromethyl)-1,2,4-oxadiazol-3-yl]-2-thienyl]methyl]acetamide]
≥ 80%: pest or weed control at 200 ppm (Phakopsora pachyrhizi) | pest or weed control at 200 ppm [1] | inhibition of growth at 20 ppm [2] | pest or weed control at 200 ppm [3]

CON(C(=O)C1CC1)C(C)c1ccc(-c2noc(C(F)(F)F)n2)s1 (stereo not shown) [Compound 1.48, N-methoxy-N-[1-[5-[5-(trifluoromethyl)-1,2,4-oxadiazol-3-yl]-2-thienyl]ethyl]cyclopropanecarboxamide]
≥ 80%: pest or weed control at 200 ppm (Phakopsora pachyrhizi) | pest or weed control at 200 ppm [1] | inhibition of growth at 20 ppm [2] | pest or weed control at 200 ppm [3]

CCNC(=O)N(Cc1ccc(-c2noc(C(F)(F)F)n2)s1)OC [Compound 1.51, 3-ethyl-1-methoxy-1-[[5-[5-(trifluoromethyl)-1,2,4-oxadiazol-3-yl]-2-thienyl]methyl]urea]
≥ 80%: pest or weed control at 200 ppm (Phakopsora pachyrhizi) | pest or weed control at 200 ppm [1] | inhibition of growth at 20 ppm [2] | pest or weed control at 200 ppm [3]

C=CCN(C)C(=O)N(Cc1ccc(-c2noc(C(F)(F)F)n2)s1)OC [Compound 1.52, 1-allyl-3-methoxy-1-methyl-3-[[5-[5-(trifluoromethyl)-1,2,4-oxadiazol-3-yl]-2-thienyl]methyl]urea]
≥ 80%: pest or weed control at 200 ppm (Phakopsora pachyrhizi) | pest or weed control at 200 ppm [1] | inhibition of growth at 20 ppm [2] | pest or weed control at 200 ppm [3]
